Test results reported in the supplement of paper PMC8671470.

Columns and labels:
Conditions in all cases: 72 h
[1] = system: myeloid leukemia patient primary cells Pat.9; assay: cell viability (% survival relative to DMSO control); higher = less cytotoxic
How it was run: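 Seventy compounds were pre-printed on 384-well plates at five tenfold concentrations between 1 and 10,000 nM, in duplicate. Thawed mononuclear cells purified by Ficoll from AML or CML patients were added at 10,000 cells/well in RPMI 1640 with 10% FBS for 72 h. Viability by CellTiter-Glo was normalised to DMSO and 10 μM proteasome-inhibitor wells. Where stated, area under the curve was taken from log-logistic fits made with the drc and PharmacoGx R packages, each fit having four parameters.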

[2] = system: myeloid leukemia patient primary cells Pat.10; assay: area under dose-response curve (viability, 1 nM-10 uM) (fraction (0-1)); higher = more sensitive
Method: (§1)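 AUC (0–1, higher = more sensitive) of the 5-point dose–response (1 nM–10 µM, 72 h, CellTiter-Glo) in primary AML/CML patient mononuclear cells. 0.030103 is the floor for inactive compounds.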

[3] = system: myeloid leukemia patient primary cells Pat.4; assay: as above
Method: as §1

[4] = system: myeloid leukemia patient primary cells Pat.15; assay: as above
Method: as §1

[5] = system: myeloid leukemia patient primary cells Pat.12; assay: as above
Method: as §1

[6] = system: myeloid leukemia patient primary cells Pat.6; assay: as above
Method: as §1

[7] = system: myeloid leukemia patient primary cells Pat.5; assay: as above
Method: as §1

[8] = system: myeloid leukemia patient primary cells Pat.9; assay: as above
Method: as §1

[9] = system: myeloid leukemia patient primary cells Pat.13; assay: as above
Method: as §1

[10] = system: myeloid leukemia patient primary cells Pat.11; assay: as above
Method: as §1

[11] = system: myeloid leukemia patient primary cells Pat.14; assay: as above
Method: as §1

[12] = system: myeloid leukemia patient primary cells Pat.1; assay: as above
Method: as §1

[13] = system: myeloid leukemia patient primary cells Pat.2; assay: as above
Method: as §1

[14] = system: myeloid leukemia patient primary cells Pat.3; assay: as above
Method: as §1

[15] = system: myeloid leukemia patient primary cells Pat.8; assay: as above
Method: as §1

[16] = system: myeloid leukemia patient primary cells Pat.7; assay: as above
Method: as §1

MV4-11 = assay: cell viability (% survival relative to DMSO control); higher = less cytotoxic
Method: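 8x8 drug-combination matrices (0–5000 nM; rosiglitazone and lestaurtinib 0–1000 nM) were run in MV4-11 cells for 72 h with CellTiter-Glo read-out. Survival is normalised to DMSO and 10 µM bortezomib and clipped at 100%.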

O=C(C1CC1)N1CC[C@@H](C=C2NNC(=O)N2c2ccc(-c3ccc4occc4c3)cc2)C1
[1]
Conditions	cell viability [%]
1 nM	95.6
10 nM	80.9
100 nM	87.2
1000 nM	45.5
10000 nM	33.2

Conditions	area under dose-response curve
[2]	0.082
[3]	< 0.0301
[4]	< 0.0301
[5]	< 0.0301
[6]	< 0.0301
[7]	0.292
[8]	0.235
[9]	< 0.0301
[10]	< 0.0301
[11]	< 0.0301
[12]	< 0.0301
[13]	< 0.0301
[14]	< 0.0301
[15]	< 0.0301
[16]	< 0.0301

C[C@H](NC(=O)c1sccc1OCc1ccc(Cl)cc1)c1ccccc1
[1]
Conditions	cell viability [%]
1 nM	84.8
10 nM	59.2
100 nM	79
1000 nM	59.2
10000 nM	1.24

Conditions	area under dose-response curve
[2]	0.13
[3]	0.0955
[4]	< 0.0301
[5]	< 0.0301
[6]	0.0893
[7]	0.338
[8]	0.195
[9]	0.0406
[10]	< 0.0301
[11]	0.121
[12]	0.0329
[13]	0.0349
[14]	0.124
[15]	< 0.0301
[16]	0.253

O=C(C1CC1)N1CC[C@@H](C=C2NNC(=O)N2c2ccc(-c3ccc4occc4c3)cc2)C1 + CS(=O)(=O)N1CCN(Cc2cc3nc(-c4cccc5[nH]ncc45)nc(N4CCOCC4)c3s2)CC1 [Pictilisib]
cell viability [%], MV4-11
Conditions	drug1 concentration 5 nM	drug1 concentration 10 nM	drug1 concentration 50 nM	drug1 concentration 100 nM	drug1 concentration 500 nM	drug1 concentration 1000 nM	drug1 concentration 5000 nM
drug2 concentration 5 nM	> 100	91.3	> 100	89.5	> 100	76.8	> 100
drug2 concentration 10 nM	> 100	89.1	> 100	91.9	72	94.3	> 100
drug2 concentration 50 nM	> 100	99.9	94.2	92	93.5	> 100	56.5
drug2 concentration 100 nM	89.5	96.8	99.6	> 100	> 100	94.6	> 100
drug2 concentration 500 nM	> 100	95.5	> 100	94	94.4	94.2	80.3
drug2 concentration 1000 nM	91.9	71.7	87.8	80.5	87.1	> 100	74.8
drug2 concentration 5000 nM	76.5	49.4	58.1	68.8	69.9	44.4	55.6

O=C(C1CC1)N1CC[C@@H](C=C2NNC(=O)N2c2ccc(-c3ccc4occc4c3)cc2)C1 + C[C@H](NC(=O)c1sccc1OCc1ccc(Cl)cc1)c1ccccc1 [as1949490]
cell viability [%], MV4-11
Conditions	drug1 concentration 5 nM	drug1 concentration 10 nM	drug1 concentration 50 nM	drug1 concentration 100 nM	drug1 concentration 500 nM	drug1 concentration 1000 nM	drug1 concentration 5000 nM
drug2 concentration 5 nM	> 100	> 100	> 100	83.1	> 100	96.5	> 100
drug2 concentration 10 nM	> 100	> 100	> 100	> 100	> 100	> 100	> 100
drug2 concentration 50 nM	> 100	99	> 100	> 100	> 100	> 100	> 100
drug2 concentration 100 nM	> 100	80.4	> 100	92.8	92.2	> 100	98.4
drug2 concentration 500 nM	> 100	96.5	> 100	> 100	> 100	93.8	> 100
drug2 concentration 1000 nM	> 100	> 100	98	89.7	86.3	> 100	61.8
drug2 concentration 5000 nM	77.3	85.6	71.7	79.5	62	58.4	72

O=C(C1CC1)N1CC[C@@H](C=C2NNC(=O)N2c2ccc(-c3ccc4occc4c3)cc2)C1 + O=C(c1c2ccccc2cc2ccccc12)N1CCC(N2CCC[C@@H](C(=O)N3CCOCC3)C2)CC1 [CP-640186]
cell viability [%], MV4-11
Conditions	drug1 concentration 5 nM	drug1 concentration 10 nM	drug1 concentration 50 nM	drug1 concentration 100 nM	drug1 concentration 500 nM	drug1 concentration 1000 nM	drug1 concentration 5000 nM
drug2 concentration 5 nM	95.4	96.1	93.4	98.1	97.2	100	> 100
drug2 concentration 10 nM	89.8	> 100	> 100	> 100	> 100	> 100	88.2
drug2 concentration 50 nM	> 100	98.5	> 100	> 100	83.6	> 100	> 100
drug2 concentration 100 nM	98.3	> 100	> 100	> 100	> 100	> 100	> 100
drug2 concentration 500 nM	> 100	91	88.9	90.1	> 100	> 100	97.5
drug2 concentration 1000 nM	> 100	97.9	98.6	> 100	> 100	> 100	> 100
drug2 concentration 5000 nM	98.1	86	96.1	> 100	91.9	86.4	92.3

O=C(O)C1=CC(=C(c2ccc(O)c(C(=O)O)c2)c2ccc(O)c(C(=O)O)c2)C=CC1=O [Aurintricarboxylic acid]
[1]
Conditions	cell viability [%]
1 nM	> 100
10 nM	99
100 nM	88
1000 nM	> 100
10000 nM	53.2

Conditions	area under dose-response curve
[2]	< 0.0301
[3]	< 0.0301
[4]	< 0.0301
[5]	< 0.0301
[6]	< 0.0301
[7]	< 0.0301
[8]	< 0.0301
[9]	< 0.0301
[10]	< 0.0301
[11]	< 0.0301
[12]	< 0.0301
[13]	< 0.0301
[14]	0.0466
[15]	< 0.0301
[16]	< 0.0301

COC(=O)[C@]12CCC(C)(C)C[C@H]1[C@H]1C(=O)C=C3[C@@]4(C)C=C(C#N)C(=O)C(C)(C)[C@@H]4CC[C@@]3(C)[C@]1(C)CC2 [Bardoxolone methyl]
[1]
Conditions	cell viability [%]
1 nM	65.1
10 nM	25.4
100 nM	0.492
1000 nM	0.773
10000 nM	3.59

Conditions	area under dose-response curve
[2]	0.589
[3]	0.158
[4]	0.207
[5]	0.0322
[6]	0.345
[7]	0.699
[8]	0.813
[9]	0.397
[10]	0.111
[11]	0.433
[12]	0.183
[13]	0.28
[14]	0.618
[15]	0.328
[16]	0.705

Cc1c(-c2ccc(-c3ccccc3F)cc2)nc2ccc(F)cc2c1C(=O)O [Brequinar]
[1]
Conditions	cell viability [%]
1 nM	88.1
10 nM	59.6
100 nM	36.9
1000 nM	50
10000 nM	10.6

Conditions	area under dose-response curve
[3]	< 0.0301
[4]	< 0.0301
[5]	< 0.0301
[6]	< 0.0301
[7]	0.433
[8]	0.532
[9]	< 0.0301
[10]	< 0.0301
[11]	0.142
[12]	< 0.0301
[13]	< 0.0301
[14]	0.588
[15]	< 0.0301
